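Assay format: 96-well plates, 48-hour exposure. TGI: total growth inhibition.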
What was measured:
Assay in all cases: NCI tumour cell line growth inhibition, 48 h
786-0 renal = test system: 786-0 renal
A498 renal = test system: A498 renal
A549 NSCLC = test system: A549 NSCLC
ACHN renal = test system: ACHN renal
CAKI-1 renal = test system: CAKI-1 renal
CCRF-CEM leukemia = test system: CCRF-CEM leukemia
COLO 205 colon = test system: COLO 205 colon
DLD-1 colon = test system: DLD-1 colon
DMS 114 small cell lung = test system: DMS 114 small cell lung
DMS 273 small cell lung = test system: DMS 273 small cell lung
EKVX NSCLC = test system: EKVX NSCLC
HCC-2998 colon = test system: HCC-2998 colon
HCT-116 colon = test system: HCT-116 colon
HCT-15 colon = test system: HCT-15 colon
HL-60(TB) leukemia = test system: HL-60(TB) leukemia
HOP-92 NSCLC = test system: HOP-92 NSCLC
HT29 colon = test system: HT29 colon
IGROV1 ovarian = test system: IGROV1 ovarian
K-562 leukemia = test system: K-562 leukemia
KM12 colon = test system: KM12 colon
KM20L2 colon = test system: KM20L2 colon
LOX IMVI melanoma = test system: LOX IMVI melanoma
LXFL 529 NSCLC = test system: LXFL 529 NSCLC
M14 melanoma = test system: M14 melanoma
M19-MEL melanoma = test system: M19-MEL melanoma
MALME-3M melanoma = test system: MALME-3M melanoma
MOLT-4 leukemia = test system: MOLT-4 leukemia
NCI-H226 lung = test system: NCI-H226 lung
NCI-H460 lung = test system: NCI-H460 lung
OVCAR-3 ovarian = test system: OVCAR-3 ovarian
OVCAR-4 ovarian = test system: OVCAR-4 ovarian
OVCAR-5 ovarian = test system: OVCAR-5 ovarian
OVCAR-8 ovarian = test system: OVCAR-8 ovarian
RPMI-8226 leukemia = test system: RPMI-8226 leukemia
RXF 393 renal = test system: RXF 393 renal
RXF-631 renal = test system: RXF-631 renal
SF-268 CNS = test system: SF-268 CNS
SF-295 CNS = test system: SF-295 CNS
SF-539 CNS = test system: SF-539 CNS
SK-MEL-2 melanoma = test system: SK-MEL-2 melanoma
SK-MEL-5 melanoma = test system: SK-MEL-5 melanoma
SN12C renal = test system: SN12C renal
SNB-19 CNS = test system: SNB-19 CNS
SNB-78 CNS = test system: SNB-78 CNS
SR leukemia = test system: SR leukemia
SW-620 colon = test system: SW-620 colon
U251 CNS = test system: U251 CNS
UACC-257 melanoma = test system: UACC-257 melanoma
UACC-62 melanoma = test system: UACC-62 melanoma
UO-31 renal = test system: UO-31 renal
XF 498 CNS = test system: XF 498 CNS

Measured: TGI

O=[N+]([O-])c1ccc(CN=C2NNS(=O)(=O)c3ccccc32)cc1
99.7 µM: SR leukemia
> 100 µM: 786-0 renal | A498 renal | A549 NSCLC | ACHN renal | CAKI-1 renal | CCRF-CEM leukemia | COLO 205 colon | DLD-1 colon | DMS 114 small cell lung | DMS 273 small cell lung | EKVX NSCLC | HCC-2998 colon | HCT-116 colon | HCT-15 colon | HL-60(TB) leukemia | HOP-92 NSCLC | HT29 colon | IGROV1 ovarian | K-562 leukemia | KM12 colon | KM20L2 colon | LOX IMVI melanoma | LXFL 529 NSCLC | M14 melanoma | M19-MEL melanoma | MALME-3M melanoma | MOLT-4 leukemia | NCI-H226 lung | NCI-H460 lung | OVCAR-3 ovarian | OVCAR-4 ovarian | OVCAR-5 ovarian | OVCAR-8 ovarian | RPMI-8226 leukemia | RXF 393 renal | RXF-631 renal | SF-268 CNS | SF-295 CNS | SF-539 CNS | SK-MEL-2 melanoma | SK-MEL-5 melanoma | SN12C renal | SNB-19 CNS | SNB-78 CNS | SW-620 colon | U251 CNS | UACC-257 melanoma | UACC-62 melanoma | UO-31 renal | XF 498 CNS
